Experiment: In vitro transdermal delivery of carboxyfluorescein through mouse skin in a Franz diffusion cell, with or without low frequency ultrasound (LFUS)
Type: in vitro ADME
Conditions: for Delivery Efficiency (% of CF delivered) / Enhancement Ratio v. free CF, no LFUS: mouse skin
Experimental: An in vitro study was performed to evaluate the ability of the present invention to enable transdermal delivery of substantially intact encapsulated drugs. The study involved applying low intensity, low pressure amplitude ultrasound waves to mouse skin in order to mediate transdermal delivery of liposome encapsulated carboxyfluorescein (CF), a hydrophilic dye. […] In this setup, an ultrasound applicator 10 having 4 transducers 12 arranged in a 2×2 array is supported by a custom fixture 80 and in direct communication with a Franz diffusion cell, including a donor compartment 82 filled with a liquid medium interspersed with liposome encapsulated CF and a sample mouse skin. Low frequency ultrasound waves (LFUS) having a low pressure amplitude of about 55 kPa, a low acoustic intensity of about 100 mW/cm^2 and a low frequency of about 17.9 kHz was generated by ultrasound applicator 10 and directed towards a mouse skin sample 84 positioned adjacent to donor compartment 82 for about 4 hours. The amount of liposome encapsulated CF that permeated mouse skin 84 and collected within a receptor compartment 86 surrounded by a water jacket 88 was examined and measured after about 4 hours of ultrasound application when the ultrasound source was turned off and again 8 hours after the start of the experiment. The liposomes were made from 1,2-dioleoyl-sn-glycerol-3-phosphocholine (DOPC), and the liposome encapsulated CF was prepared using the dehydration-rehydration technique described in Kirby, C. and G. Gregoriadis, “Dehydration rehydration vesicles: a simple method for high yield drug entrapment in liposome,” Nature Biotechnology, 1984, 2(11): p. 9′79-984, herein incorporated by reference. In this experiment, encapsulation efficiency of the CF was improved (about 10% to about 30% measured by titration) by minimizing the amount of rehydration buffer used, adjusting pH before rehydration to fully dissolve CF by minimizing the amount of rehydration buffer used, and by adjusting the pH to about 10 and subsequently adjusting the pH to about 7.4 before rehydration. The original encapsulation efficiency of CF was about 0.67% in 100 nm liposomes, using about 5.2 mg CF in the rehydration buffer (about 2.56 mM). […] Tests D1-D2 show the results for liposome encapsulated CF after exposure to 20 minutes of low frequency ultrasound stimulation. Tests E1-3 show the results for liposome encapsulated CF upon exposure to 4 hours of low frequency ultrasound stimulation.

- Delivery Efficiency (% of CF delivered) (4 hr simultaneous LFUS): 0.03%
- Enhancement Ratio v. free CF, no LFUS (4 hr simultaneous LFUS): 0.00
- Amount able to permeate the mouse skin (after 8 hours, not assisted by ultrasound): less than 0.005 M/M
- Delivery Efficiency (% of CF delivered) (no LFUS): 0.03%
- Enhancement Ratio v. free CF, no LFUS (no LFUS): 0.00
Substance: carboxyfluorescein [Free CF]

Source: patent US20210052874A1, “ULTRASOUND DEVICE AND THERAPEUTIC METHODS” (priority 2011, published 2021)
